Reference: patent US11078192B2, “Aromatic acetylene or aromatic ethylene compound, intermediate, preparation method, pharmaceutical composition and use thereof” (GUANGZHOU MAXINOVEL PHARMACEUTICALS CO., LTD., priority 2016, dated 2021)

Each molecule was assayed against PD-1/PD-L1 (Homo sapiens (Human), UniProt Q9NZQ7) (assay: Homogeneous Time-Resolved Fluorescence (HTRF) binding assay). Details: CisBio kit #64CUS000C-1, read-out: IC50 of compounds binding to PD-1/PD-L1.
Description: Homogeneous Time-Resolved Fluorescence (HTRF) binding assay was used to determine the binding activity of the compound of the present invention to PD-1/PD-L1.
The purchased kit (CisBio, #64CUS000C-1) contained reagents required for assays such as PD-1, PD-L1, anti-tag1-Eu, Anti-tag2-XL665, Dilute Buffer, and Detection Buffer.
1. The compound was formulated to 10 concentrations with a 3-fold gradient with 100% DMSO.
2. The solution of the compound in DMSO was added to Dilute Buffer, mixed thoroughly, then transferred to a 96-well plate.
3. PD-L1 was diluted with Dilute Buffer, then added to the above 96-well plate.
4. PD-1 was diluted with Dilute Buffer and added to the above 96-well plate, which was then incubated at room temperature for 30 minutes.
5. A portion of anti-tag1-Eu and a portion of anti-tag2-XL665 were added to Detection Buffer, mixed thoroughly and transferred to the above 96-well plate.
6. The mixture in the above 96-well plate was incubated at room temperature for 1 to 24 hours.
7. HTRF values were read with Envision.

Chain of PD-1/PD-L1 (Q9NZQ7 19-238): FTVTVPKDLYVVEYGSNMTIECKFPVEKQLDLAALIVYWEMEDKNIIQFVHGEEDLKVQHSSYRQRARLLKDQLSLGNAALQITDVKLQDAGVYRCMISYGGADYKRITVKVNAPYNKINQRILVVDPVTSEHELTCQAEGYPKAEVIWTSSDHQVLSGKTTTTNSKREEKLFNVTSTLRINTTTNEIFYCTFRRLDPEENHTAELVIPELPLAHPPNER

| IC50 | SMILES |
| --- | --- |
| > 10000 nM | Cc1c(/C=C/c2ccc(CN3CCCC(O)C3C(N)=O)cc2F)cccc1-c1ccccc1 (stereo not drawn) [Compound 24, (E)-1-(3-Fluoro-4-(2-(2-methylbiphenyl-3-yl)vinyl)benzyl)-3-hydroxypiperidin-2-carboxamide] |
| > 10000 nM | COc1ccc(-c2cccc(/C=C/c3cc(OC)c(CNc4cccc(O)c4C(=O)O)c(OC)c3)c2C)cc1 [Compound 54, (E)-2-(2,6-Dimethoxy-4-(2-(4′-methoxy-2-methylbiphenyl-3-yl)vinyl)benzylamino)-6-hydroxybenzoic Acid] |
| 3900 nM | COc1cc(/C=C/c2cncc(-c3ccccc3)c2C)cc(OC)c1CN[C@@H](CO)C(=O)O [Compound 63, (S,E)-2-(2,6-dimethoxy-4-(2-(4-methyl-5-phenylpyridin-3-yl)vinyl)benzylamino)-3-hydroxypropanoic Acid] |
| 250 nM | Cc1c(/C=C/c2cc(CN[C@H](CO)C(=O)O)ccc2Cl)cccc1-c1ccccc1 [Compound 35, (R,E)-2-(4-Chloro-3-(2-(2-methylbiphenyl-3-yl)vinyl)benzylamino)-3-hydroxypropionic Acid] |
| > 10000 nM | COc1ccc(-c2cccc(/C=C/c3cc(OC)c(CN[C@@H](CO)C(=O)O)c(OC)c3)c2C)cc1 [Compound 48, (S,E)-2-(2,6-Dimethoxy-4-(2-(4′-methoxy-2-methylbiphenyl-3-yl)vinyl)benzylamino)-3-hydroxypropionic Acid] |
| 250 nM | Cc1c(/C=C/c2ccc(CNC(CO)CO)cc2Cl)cccc1-c1ccccc1 [Compound 32, (E)-2-(3-Chloro-4-(2-(2-methylbiphenyl-3-yl)vinyl)benzylamino)-1,3-propanediol] |
| 780 nM | Cc1c(/C=C/c2ccc(CN3CCCC(O)C3C(=O)O)cc2F)cccc1-c1ccccc1 (stereo not drawn) [Compound 21, (E)-3-Hydroxy-1-(3-fluoro-4-(2-(2-methylbiphenyl-3-yl)vinyl)benzyl)piperid in-2-carboxylic Acid] |
| 590 nM | Cc1c(/C=C/c2ccc(CN3CCC[C@H]3CO)cn2)cccc1-c1ccccc1 [Compound 16, (S,E)-(1-((6-(2-(2-Methylbiphenyl-3-yl)vinyl)pyridin-3-yl)methyl)pyrrolidin-2-yl)methanol] |
| > 10000 nM | COc1cc(/C=C/c2cccc(-c3ccccc3)c2C)cc(OC)c1CNc1cccc(O)c1C(=O)O [Compound 53, (E)-2-(2,6-Dimethoxy-4-(2-(2-methylbiphenyl-3-yl)vinyl)benzylamino)-6-hydroxybenzoic Acid] |
| 120 nM | COc1cc(/C=C/c2cccc(-c3ccc4c(c3)OCCO4)c2C)ccc1CN[C@@H](CO)C(=O)O [Compound 62, (S,E)-2-(4-(3-(2,3-Dihydrobenzo[b][1,4]dioxin-6-yl)-2-methylstyryl)-2-methoxybenzylamino)-3-hydroxypropanoic Acid] |
| 60 nM | COc1cc(/C=C/c2cccc(-c3ccccc3)c2C)cc(OC)c1CNC(CO)CO [Compound 5, (E)-2-((2,6-Dimethoxy-4-(2-(2-methylbiphenyl-3-yl)vinyl)benzyl)amino)propane-1,3-diol] |
| 240 nM | Cc1cc(CNC(CO)CO)ccc1/C=C/c1cccc(-c2ccccc2)c1C [Compound 31, (E)-2-(3-Methyl-4-(2-(2-methylbiphenyl-3-yl)vinyl)benzylamino)-1,3-propanediol] |
| 100 nM | COc1cc(/C=C/c2cccc(-c3ccccc3)c2C)cc(OC)c1CNCC(=O)O [Compound 37, (E)-2-(2,6-Dimethoxy-4-(2-(2-methylbiphenyl-3-yl)vinyl)benzylamino)acetic Acid] |
| 1530 nM | Cc1cc(/C=C/c2cccc(-c3ccc4c(c3)OCCO4)c2C)cc(OCc2cccc(C#N)c2)c1CN1CCC[C@H]1CO [Compound 1, (S,E)-3-((5-(3-(2,3-Dihydrobenzo[b][1,4]dioxin-6-yl)-2-methylstyryl)-2-((2-(hydroxymethyl)pyrrolidin-1-yl)methyl)-3-methylphenoxy)methyl)benzonitrile] |
| 5950 nM | COC(=O)C1C(O)CCCN1Cc1c(OC)cc(/C=C/c2cccc(-c3ccccc3)c2C)cc1OC (stereo not drawn) [Compound 25, (E)-Methyl 1-(2,6-dimethoxy-4-(2-(2-methylbiphenyl-3-yl)vinyl)benzyl)-3-hydroxypiperidin-2-carboxylate] |
| 48 nM | COc1cc(/C=C/c2cccc(-c3ccccc3)c2C)cc(OC)c1CN[C@](C)(CO)C(=O)O [Compound 46, (R,E)-2-(2,6-Dimethoxy-4-(2-(2-methylbiphenyl-3-yl)vinyl)benzylamino)-3-hydroxy-2-methylpropanoic Acid] |
| 2400 nM | Cc1c(/C=C/c2cc(CN3CCC[C@H]3CO)ccc2C(F)(F)F)cccc1-c1ccc2c(c1)OCCO2 [Compound 67, (S,E)-(1-(3-(3-(2,3-Dihydrobenzo[b][1,4]dioxin-6-yl)-2-methylstyryl)-4-(trifluoromethyl)benzyl)pyrrolidin-2-yl)methanol] |
| 390 nM | COc1cc(/C=C/c2cccc(-c3ccccc3)c2C#N)cc(OC)c1CN1CCC[C@H]1CO [Compound 14, (S,E)-3-(4-((2-Hydroxymethylpyrrolidin-1-yl)methyl)-3,5-dimethoxystyryl)biphenyl-2-carbonitrile] |

| IC50 | SMILES |
| --- | --- |
| 4500 nM | COc1cc(/C=C/c2cccc(-c3ccc(C(N)=O)cc3)c2C)cc(OC)c1CNc1cccc(O)c1C(=O)O [Compound 55, (E)-2-(2,6-Dimethoxy-4-(2-(4′-carbamoyl-2-methylbiphenyl-3-yl)vinyl)benzylamino)-6-hydroxy-benzoic Acid] |
| 2820 nM | Cc1c(C#Cc2ccc(CN3CCCC(O)C3C(=O)O)cc2F)cccc1-c1ccccc1 (stereo not drawn) [Compound 29, 1-(3-Fluoro-4-((2-methylbiphenyl-3-yl)ethynyl)benzyl)-3-hydroxypiperidin-2-carboxylic Acid] |
| 170 nM | COc1nc(/C=C/c2cccc(-c3ccccc3)c2C)ccc1CNCCNC(C)=O [Compound 39, (E)-N-(2-(((2-methoxy-6-(2-(2-methylbiphenyl)vinyl)pyridin-3-yl)methyl)amino)ethyl)acetamide] |
| 240 nM | COc1cc(/C=C/c2cccc(-c3ccc4c(c3)OCCO4)c2C)cc(OC)c1CN1CCC[C@H]1CO [Compound 15] |
| 190 nM | Cc1c(/C=C/c2ccc(CNCC(O)CC(=O)O)cn2)cccc1-c1ccc2c(c1)OCCO2 (stereo not drawn) [Compound 18, (E)-4-((6-(3-(2,3-Dihydrobenzo[b][1,4]dioxin-6-yl)-2-methylstyryl)pyridin-3-yl)methylamino)-3-hydroxybutanoic Acid] |
| 2900 nM | COc1cc(/C=C/c2cncc(-c3ccc4c(c3)OCCO4)c2C)cc(OC)c1CNC(C)(CO)C(=O)O (stereo not drawn) [Compound 66, (E)-2-(4-(2-(5-(2,3-Dihydrobenzo[b][1,4]dioxin-6-yl)-4-methylpyridin-3-yl)vinyl)-2,6-dimethoxybenzylamino)-3-hydroxy-2-methylpropanoic Acid] |
| 410 nM | Cc1cc(CN2CCC[C@H]2CO)ccc1/C=C/c1cccc(-c2ccccc2)c1C [Compound 12] |
| > 10000 nM | COc1cc(/C=C/c2cccc(-c3cccc(CO)c3)c2C)cc(OC)c1CNC(C)(CO)C(=O)O (stereo not drawn) [Compound 52, (E)-2-(2,6-Dimethoxy-4-(2-(3′-hydroxymethyl-2-methylbiphenyl-3-yl)vinyl)benzylamino)-3-hydroxy-2-methylpropionic Acid] |
| 100 nM | COc1cc(/C=C/c2cccc(-c3ccc4c(c3)OCCO4)c2C)cc(OC)c1CNC(CO)C(=O)O (stereo not drawn) [Compound 56, (E)-2-(4-(3-(2,3-Dihydrobenzo[b][1,4]dioxin-6-yl)-2-methylstyryl)-2,6-dimethoxybenzylamino)-3-hydroxypropanoic Acid] |
| > 10000 nM | COC(=O)C1C(O)CCCN1Cc1ccc(/C=C/c2cccc(-c3ccccc3)c2C)c(Cl)c1 (stereo not drawn) [Compound 20, (E)-Methyl 1-(3-chloro-4-(2-(2-methylbiphenyl-3-yl)vinyl)benzyl)-3-hydroxypiperidin-2-carboxylate] |
| > 10000 nM | COc1cc(/C=C/c2cccc(-c3ccccc3)c2C)cc(OC)c1CNc1ccc(C(=O)O)c(O)c1 [Compound 58, (E)-4-(2,6-Dimethoxy-4-(2-(2-methylbiphenyl-3-yl)vinyl)benzylamino)-2-hydroxybenzoic Acid] |
| 1100 nM | COc1nc(/C=C/c2cccc(-c3ccccc3)c2C)ccc1CNC1CCCCC1NC(C)=O (stereo not drawn) [Compound 42] |
| 59 nM | COc1cc(/C=C/c2cccc(-c3ccccc3)c2C)cc(OC)c1CNC(C)(CO)C(=O)O (stereo not drawn) [Compound 44, (E)-2-(2,6-Dimethoxy-4-(2-(2-methylbiphenyl-3-yl)vinyl)benzylamino)-3-hydroxy-2-methylpropanoic Acid] |
| 100 nM | Cc1ccc(CN[C@H](CO)C(=O)O)cc1/C=C/c1cccc(-c2ccccc2)c1C [Compound 36, (R,E)-2-(4-Methyl-3-(2-(2-methylbiphenyl-3-yl)vinyl)benzylamino)-3-hydroxypropionic Acid] |
| 920 nM | COc1cc(/C=C/c2cccc(-c3ccccc3)c2C)cc(OC)c1CN1CCCCC1(CO)C(=O)O (stereo not drawn) [Compound 47] |
| > 10000 nM | COc1cc(/C=C/c2cccc(-c3cnn(C)c3)c2C)cc(OC)c1CN[C@@H](CO)C(=O)O [Compound 61] |
| 2160 nM | Cc1cc(CN2CCCC(O)C2C(=O)O)ccc1C#Cc1cccc(-c2ccccc2)c1C (stereo not drawn) [Compound 28, 1-(3-Methyl-4-((2-methylbiphenyl-3-yl)ethynyl)benzyl)-3-hydroxypiperidin-2-carboxylic Acid] |
| 2700 nM | COc1cc(/C=C/c2cccc(-c3ccccc3)c2C)cc(OC)c1CN1CCC[C@H]1CO [Compound 3, (S,E)-(1-(2,6-Dimethoxy-4-((2-methylbiphenyl-3-yl)vinyl)benzyl)pyrrolidin-2-yl)methanol] |
